Source: ChEMBL document CHEMBL1122427, “Structure-activity studies of highly potent cyclic [Cys4,Cys10]Melanotropin analogues” (J Med Chem, 1983)

How the values were obtained:
lizard = assay: Evaluated for relative potency in stimulating melanosome dispersion against Lizard skin (Anolis carolinensis).; format: functional
frog = assay: Evaluated for relative potency in stimulating melanosome dispersion against Frog skin melanophores (Rana pipiens); format: functional

Row | SMILES | Relative potency (lizard) | Relative potency (frog)
1 | CSCC[C@H](NC(C)=O)C(=O)N[C@@H](CCC(=O)O)C(=O)N[C@@H](Cc1c[nH]cn1)C(=O)N[C@@H](Cc1ccccc1)C(=O)N[C@@H](CCCN=C(N)N)C(=O)N[C@@H](Cc1c[nH]c2ccccc12)C(=O)NCC(N)=O | 0.02 | 0.0006
2 | CC(=O)N[C@@H]1CSSC[C@H](C(=O)N[C@H](CCCCN)C(=O)N2CCC[C@@H]2C(=O)N[C@@H](C(N)=O)C(C)C)NC(=O)[C@@H](Cc2c[nH]c3ccccc23)NC(=O)[C@H](CCCN=C(N)N)NC(=O)[C@@H](Cc2ccccc2)NC(=O)[C@H](Cc2c[nH]cn2)NC(=O)[C@@H](CCC(=O)O)NC1=O | 1.6 | 10000
3 | CC(=O)N[C@@H]1CSSC[C@H](C(N)=O)NC(=O)[C@@H](Cc2c[nH]c3ccccc23)NC(=O)[C@H](CCCN=C(N)N)NC(=O)[C@@H](Cc2ccccc2)NC(=O)[C@H](Cc2c[nH]cn2)NC(=O)[C@@H](CCC(=O)O)NC1=O | 0.003 | 0.07
4 | CC(=O)N[C@@H](CO)C(=O)N[C@@H](Cc1ccc(O)cc1)C(=O)N[C@@H](CO)C(=O)N[C@@H]1CSSC[C@H](C(=O)N[C@H](CCCCN)C(=O)N2CCC[C@@H]2C(=O)N[C@@H](C(N)=O)C(C)C)NC(=O)[C@@H](Cc2c[nH]c3ccccc23)NC(=O)[C@H](CCCN=C(N)N)NC(=O)[C@@H](Cc2ccccc2)NC(=O)[C@H](Cc2c[nH]cn2)NC(=O)[C@@H](CCC(=O)O)NC1=O | 32 | 10000
